Laboratory results as given in patent US6727227B1, “Tetrapetide revealing geroprotective effect, pharmacological substance on its basis, and the method of its application” (Obschestvo S Ogranichennoi Otvetstven-Nostiju “Klinika …, priority 2002, dated 2004).
Marks after values point to notes of the source that are not given here. Residues, ends and D or L forms follow the SMILES beside them.

Key:
[1] = tested on: rats; assay: Chronic toxicity, 6 months; type: in vivo; conditions: intramuscularly daily during 6 months, 1 μg/kg, 0.1 mg/kg, 1 mg/kg
Protocol: The animals were exposed daily to a single administration of the drug intramuscularly in doses 1 μg/kg, 0.1 mg/kg, 1 mg/kg in 0.5 ml of sodium chloride solution during 6 months. Behaviour of the animals, their rations and water consumption, the state of their hair integument and mucous membranes were registered. The animals were weighed daily during the first 3 months of the experiment and then once a month. Haematological and biochemical studies were carried out 3 months after the onset of drug administration and upon experiment completion. Functions of the cardiovascular system, liver, pancreas, kidneys, and adrenal glands were assessed. Upon the end of drug administration some animals were subjected to pathomorphological examination for the purpose of estimating the condition of various sections of the brain and spinal marrow, heart, aorta, lungs, liver, kidneys, organs of the endocrine and immune systems.

[2] = tested on: Drosophila melanogaster of HEM strain; assay: Luminol-dependent tissue chemoluminescence in flies of HEM strain; type: in vivo; conditions: 0.00001% of culture medium weight
Description: L-Ala-L-Glu-L-Asp-Gly tetrapeptide (SEQ ID NO: 1) was applied in Drosophila melanogaster larvae of the 2nd age of HEM strain selected for a high ageing rate (20). HEM strain is characterised by the unique dynamics of embryonic mortality, which consists in an increased frequency of early embryonic lethal outcomes from 65% on the 1st day of egg-laying up to 95% on the 4th day, in a reduced average life span (29 days), and in a raised intensity of lipid peroxide oxidation.
L-Ala-L-Glu-L-Asp-Gly tetrapeptide (SEQ ID NO: 1) was added in proportion 0.00001% of the culture medium weight, which was an extremely low dose. The doses described in literature on the influence of various substances on Drosophila melanogaster usually ranged from 0.001 to 0.01%.
Biochemical parameters were studied on 14-day old flies. Among them the activity of catalase activity and the intensity of tissue chemoluminescence were analysed (21, 22, 23). Catalase is the basic enzyme of anti-oxidation defence. […] Luminol-dependent chemoluminescence, induced by hydrogen peroxide, reflects the stage of active oxygen forms in tissues. Thus, a decrease in the chemoluminescence intensity indicates an increase in the organism ability to resist oxidative stress.

[3] = tested on: patients suffering aspirin bronchial asthma; assay: Clinical application in patients suffering aspirin bronchial asthma; type: in vivo
[4] = tested on: catalase; assay: Catalase activity in homogenates of 14 days old flies of LA strain; type: in vivo, Drosophila melanogaster of LA strain
Protocol: The impact produced by L-Ala-L-Glu-L-Asp-Gly tetrapeptide (SEQ ID NO: 1) on catalase activity, the content of the products of lipid peroxide oxidation (LPO), life span, and the ageing rate were studied in Drosophila melanogaster of LA strain.
L-Ala-L-Glu-L-Asp-Gly tetrapeptide (SEQ ID NO: 1) was applied in the larvae of the 3rd age in dose 0.00001% of the culture medium weight, which constituted approximately 0.015 mg/100 ml. Catalase activity was estimated by generally accepted methods in the homogenates of adult 14 days old flies. The experiment was carried out with a subsequent repetition.
Regression and dispersal analyses served as the basic technique of statistic processing. The authenticity of differences was confirmed by the method of minimal relevant diversity.

[5] = tested on: gastric EC-cells; assay: Extra-pineal synthesis of melatonin: enteroendocrine and serotonin-positive cell density in stomach after epiphysectomy; type: in vivo, male Wistar rats; conditions: for NEND/1 mm^2 (density of entero-endocrine cells), Fundal / NEND/1 mm^2 (density of entero-endocrine cells), Pyloric / Nser/1 mm^2 (density of serotonin-positive cells), Pyloric: 0.5 μg subcutaneously 10 days
Protocol: The research was carried out on male Wistar rats weighing 130-140 g. The total number of the animals (23) was divided into 5 groups. The 1st group (control) included intact animals. The animals of groups 2-5 underwent epiphysectomy (EE). In 3 weeks after the surgery (on the 21st day) the animals of the 2nd and 3rd groups were subcutaneously injected with sodium chloride in dose 0.5 ml for the next 10 days. The animals of groups 4 and 5 were administered with L-Ala-L-Glu-L-Asp-Gly tetrapeptide (SEQ ID NO: 1) in dose 0.5 μg according to the same scheme.
Slaughtering of the animals and isolation of their organs were conducted from 10 a.m. to 12 noon by daylight with the use of Nembutal anaesthesia (50 mg/kg). The animals of groups 1, 2 and 4 were slaughtered in 3 days upon the final drug administration (on the 33rd day after the operation and the onset of the experiment), while the animals of groups 3 and 5-in 12 days (on the 42nd day after epiphysectomy). Examined were the main organs of the diffuse neuroendocrine system (DNES): stomach, thyroid gland, and pancreas.
The surgery—epiphysectomy—was conducted under ether anaesthesia according to the devised technique. A 1-1.5 cm long incision was made along the central line of the head. Upon the uncovering of the scull cap an aperture was drilled over the sinus confluence point by means of a hollow 0.5 cm-diameter auger, which was manufactured of a metal tube especially for the experiment. The epiphysis was extracted by means of ophthalmic forceps through the opening in the cranium. The trepanation aperture was covered with an osteal fragment. The skin incision was sewn with silk threads.
Fragments of the extracted organs were fixed for 24 hours in Buen sour liquid for optic microscopy and according to Karnovsky for electron microscopy. Material dehydration and filling it in with paraffin for optic microscopy, as well as epone mixture for ultra-structural examination were prepared according to generally accepted techniques. Paraffin sections (7 μm) were placed on a microscope slide covered with a poly-L-lysine film (Sigma). Ultra-thin sections (100 nm) prepared on LKB-7A microtome (LKB) were contrasted with uranyl acetate and plumbum citrate.
Histological and immunohistochemical examinations were carried out with a Jenamed-2 microscope (Zeiss). Electron-microscopic examination was conducted with a electronic JEM-100S microscope (JEOL).
For staining hematoxyline-eosin was applied. The total population of APUD-cytes in the pyloric and fundal stomach sections was determined according to Grimelius' histochemical silvering method (25).
Immunohistochemical exposure of enterochromophine-cells (EC-cells) was conducted by applying uniclonic antibodies of mice to serotonin (Dako, 1:15 titre). The uniclonic antibodies were identified according to avidin-biotin-peroxidase (ABP) method (Vectastain kit) in order to measure immune serum globulins of mice.
The quantitative studies were carried out by means of computer analysis system of microscopic imprints (Imstar) with the use of Morphostar and Colquant (Imstar) applied licensed computer programmes, in accordance with the basic principles of stereology and morphometry (26).
The quantitative density of enteroendocrine (END) (NEND/1 mm^2) and serotonin-positive cells (Nser/1 mm^2) was estimated in 10 visual fields. The test area (S) constituted 5 mm^2.
For the statistical processing of the acquired data the non-parametric U-criterion by Mann/Whitney was applied.

[6] = 10 μg intramuscularly daily for 10 days
[7] = epiphysectomised rats, 3rd day upon the end of drug administration
[8] = epiphysectomised rats, 12th day upon the end of drug administration

SMILES: C[C@H](N)C(=O)N[C@@H](CCC(=O)O)C(=O)N[C@@H](CC(=O)O)C(=O)NCC(=O)O [L-Ala-L-Glu-L-Asp-Gly tetrapeptide, L-alanyl-L-glutamyl-L-aspartyl-glycine] (H-AEDG-OH)
- Pathologic alterations (general state, blood indices, intrinsic organs, cardiovascular, respiratory, liver, kidney) [1]: no pathologic alterations
- Side effects, chronic toxicity [1]: absence of side effects
- Chemoluminescence ([2]; females): 7.9 ± 0.91 conv. unit/mg of protein
- Chemoluminescence ([2]; males): 2.03 ± 0.182 conv. unit/mg of protein
- Clinical state by the end of the treatment [3, 6]: improvement in clinical state by the end of the treatment was observed in the overwhelming majority of patients
- External respiratory function (VBC, MVexhR, FEV1, TV/TLC) immediately after treatment [3, 6]: did not reveal any essential alterations
- Reaction to Berotek on the level of distal bronchi [3, 6]: showed an improvement
- Excretion of 6-sulfatoxymelatonin in urine ([3]; at night and in the daytime): increased
- Specific activity of catalase ([4]; females): 42.57 μmole H2O2/mg of protein per min.
- Specific activity of catalase ([4]; males): 57.44* μmole H2O2/mg of protein per min.
- Extra-pineal synthesis of serotonin and melatonin in gastric EC-cells ([5]; epiphysectomised rats): promotes the extra-pineal synthesis of serotonin and melatonin
- NEND/1 mm^2 (density of entero-endocrine cells), Fundal [5, 7]: 64 ± 5 /1 mm^2
- NEND/1 mm^2 (density of entero-endocrine cells), Pyloric [5, 7]: 21 ± 1 /1 mm^2
- Nser/1 mm^2 (density of serotonin-positive cells), Pyloric [5, 7]: 26 ± 2 /1 mm^2
- NEND/1 mm^2 (density of entero-endocrine cells), Fundal [5, 8]: 47 ± 9 /1 mm^2
- NEND/1 mm^2 (density of entero-endocrine cells), Pyloric [5, 8]: 19 ± 1 /1 mm^2
- Nser/1 mm^2 (density of serotonin-positive cells), Pyloric [5, 8]: 26 ± 3 /1 mm^2
- Effect on the epiphysectomy impact on DNES cells ([5]; within 3 days upon the end of administration, maintained for 12 days): complete suppression of the epiphysectomy impact
